What was measured:
[1] = biological target: T1, 5LO-1 (Homo sapiens, UniProt P09917); test: In vitro efficacy: inhibitor of 5LO-1; type: biochemical
T1 sequence (P09917 1-674): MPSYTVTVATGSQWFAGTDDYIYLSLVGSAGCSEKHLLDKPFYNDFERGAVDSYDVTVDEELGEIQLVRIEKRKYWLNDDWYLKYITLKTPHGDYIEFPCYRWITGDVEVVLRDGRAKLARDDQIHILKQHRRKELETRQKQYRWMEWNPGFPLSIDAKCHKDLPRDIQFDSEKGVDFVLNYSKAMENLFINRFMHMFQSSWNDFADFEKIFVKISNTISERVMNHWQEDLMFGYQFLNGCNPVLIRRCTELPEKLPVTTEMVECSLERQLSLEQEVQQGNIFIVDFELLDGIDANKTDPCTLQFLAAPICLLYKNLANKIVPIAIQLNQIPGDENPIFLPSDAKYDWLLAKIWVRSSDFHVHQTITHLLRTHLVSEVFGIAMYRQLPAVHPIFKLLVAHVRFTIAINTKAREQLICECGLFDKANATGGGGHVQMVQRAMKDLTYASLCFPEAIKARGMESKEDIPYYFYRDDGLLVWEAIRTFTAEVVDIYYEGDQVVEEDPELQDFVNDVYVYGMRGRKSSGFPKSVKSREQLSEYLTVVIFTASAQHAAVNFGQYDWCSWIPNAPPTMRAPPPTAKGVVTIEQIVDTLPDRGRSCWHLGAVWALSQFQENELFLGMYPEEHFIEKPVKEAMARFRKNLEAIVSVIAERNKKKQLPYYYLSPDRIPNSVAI

[2] = biological target: COX-1 (Homo sapiens, UniProt P23219); test: In vitro efficacy: inhibitor of COX-1; type: biochemical
Chain of COX-1 (P23219 24-599): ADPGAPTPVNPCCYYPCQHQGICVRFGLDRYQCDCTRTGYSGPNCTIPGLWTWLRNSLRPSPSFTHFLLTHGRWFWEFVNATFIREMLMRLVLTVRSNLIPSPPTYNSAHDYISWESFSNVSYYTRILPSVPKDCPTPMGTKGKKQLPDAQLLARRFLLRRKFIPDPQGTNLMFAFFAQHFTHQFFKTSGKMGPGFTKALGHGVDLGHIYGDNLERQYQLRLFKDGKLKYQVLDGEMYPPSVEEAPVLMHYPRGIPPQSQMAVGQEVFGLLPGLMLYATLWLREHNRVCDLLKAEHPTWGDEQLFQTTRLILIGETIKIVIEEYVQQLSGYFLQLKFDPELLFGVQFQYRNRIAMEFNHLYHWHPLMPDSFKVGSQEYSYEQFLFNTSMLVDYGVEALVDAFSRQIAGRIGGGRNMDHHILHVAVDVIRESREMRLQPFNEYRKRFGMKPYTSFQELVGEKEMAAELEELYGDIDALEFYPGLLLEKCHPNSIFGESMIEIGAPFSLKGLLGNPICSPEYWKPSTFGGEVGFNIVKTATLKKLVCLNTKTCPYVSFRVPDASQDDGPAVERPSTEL

[3] = biological target: T2, COX-2 (Homo sapiens, UniProt P35354); test: In vitro efficacy: inhibitor of COX-2; type: biochemical
T2 sequence (P35354 18-604): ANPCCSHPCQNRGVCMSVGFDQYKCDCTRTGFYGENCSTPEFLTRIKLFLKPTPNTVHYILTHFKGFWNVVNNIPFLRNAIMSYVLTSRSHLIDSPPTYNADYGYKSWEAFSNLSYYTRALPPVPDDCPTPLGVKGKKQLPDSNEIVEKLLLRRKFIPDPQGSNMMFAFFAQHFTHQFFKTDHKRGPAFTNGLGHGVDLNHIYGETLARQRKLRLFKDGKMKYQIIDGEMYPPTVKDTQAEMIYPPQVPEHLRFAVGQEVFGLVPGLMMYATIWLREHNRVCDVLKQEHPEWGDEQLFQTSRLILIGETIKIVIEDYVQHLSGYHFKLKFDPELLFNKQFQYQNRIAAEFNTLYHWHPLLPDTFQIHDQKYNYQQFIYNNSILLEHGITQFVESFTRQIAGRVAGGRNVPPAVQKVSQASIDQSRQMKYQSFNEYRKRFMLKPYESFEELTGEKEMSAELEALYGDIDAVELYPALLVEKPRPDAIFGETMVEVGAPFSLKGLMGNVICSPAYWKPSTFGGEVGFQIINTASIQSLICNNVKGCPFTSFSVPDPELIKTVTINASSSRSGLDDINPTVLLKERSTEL

[4] = system: Rabbit Anterior Cruciate Ligament Transection (ACLT) Model; test: Rabbit ACLT osteoarthritis model, NSAID dispersed in HA (Example 4); type: in vivo, New Zealand White Rabbits; conditions: intra-articular 160 μL once per week for 5 weeks
Source text: Osteoarthritis is a degenerative disease that degrades cartilage, resulting in pain, restriction of motion and deformity. In the ACLT model, the appearance of OA can be seen at 6 weeks and is characterized by erosion of cartilage on the trochlear grove and mild to serious cartilage erosion on the femoral condyle. The last symptoms to arise are on the tibial plateau. At 6 weeks, there is some damage visible on the tibial plateau, but the damage may not be great given the length of the study. […] While osteophyte formation is a factor in the analysis, several parameters are observed, wherein each parameter alone is not sufficient to draw a conclusion. Therefore, the composite score provides a more meaningful result for a particular agent tested.
The ACLT model was used to evaluate the ability of a NSAID agent in a pharmaceutical formulation administered directly into the intra-articular capsule of the knee to reduce the incidence of osteoarthritic changes. The NSAIDs formulations prepared in Example 2 were used and injected 6 weeks after animal preparation. A commercially available form of purified HA was used as the vehicle control. The animals (n=7 per group) were dosed (160 μL per injection) once per week for 5 weeks.
Female New Zealand White Rabbits (n=84, Milibrook Breeding Labs, SPF) used in the study underwent ACLT on the right knee.
One week after the last injection (total 12 weeks from time of ACLT), animals were euthanized and gross observations were made on the knee joints. Histological sectioning and staining were performed on the condyles.
The joints were analyzed for disease state in the trochlear groove, the femoral condyles and the tibial plateau. Pathological assessments were performed on the sectioned tissue. Condylar structure, cellularity, presence of GAG (glycosaminoglycans) and presence of cartilage were evaluated.
On the anterior surface of the femur (trochlear groove), the number of osteophytes, the size (diameter) of osteophytes, the presence of trochlear groove thickening and the erosion of cartilage were evaluated grossly.
On the femoral condyles, the erosion of cartilage (% surface area) (both medial and lateral condyle), the erosion of cartilage (depth) and the presence of clefts were evaluated grossly.
On the tibial plateau, observations on the thickening, presence of clefts and erosion were made.
Each parameter was given a score. The combination of all parameters gave a Total Score. A higher score indicates more damage to the joint. The data for un-operated joints (no surgery) has been included as a baseline for a normal joint.

[5] = system: LTB4; test: In vitro efficacy: inhibitor of LTB4; type: biochemical
[6] = system: TXB2; test: In vitro efficacy: inhibitor of TXB2; type: biochemical

Structure (SMILES)	IC50 [1]	IC50 [2]	IC50 [3]	All Cartilage Effects composite score ([4]; high dose)	Total Score (composite of all scoring criteria) ([4]; high dose)	Medial Femoral Condyle (% Surface Area Erosion) score ([4]; low dose)	All Cartilage Effects composite score ([4]; mid dose)	All Tibial Plateau Effects composite score ([4]; mid dose)	Lateral Femoral Condyle (% Surface Area Erosion) score ([4]; mid dose)	Medial Femoral Condyle (% Surface Area Erosion) score ([4]; mid dose)	Total Score (composite of all scoring criteria) ([4]; mid dose)	All Trochlear Groove Effects composite score ([4]; high dose)	Trochlear Groove (Erosion of Cartilage) grade ([4]; high dose)	further results
CC(C(=O)O)c1ccc(C(=O)c2cccs2)cc1 (stereo not drawn) [Suprofen]	3000 nM	60 nM	1000 nM	lower mean scores than the No Injection treated group	numerically less average scores than the No Injection treated group	the same average score as No Injection but scored better than Vehicle	lower mean scores than the No Injection treated group	lower average scores than the No Injection treated group	average numerical scores less than Vehicle and No Injection treated groups	average numerical scores less than Vehicle and No Injection treated groups	numerically less average scores than the No Injection treated group			All Trochlear Groove Effects composite score ([4]; all dose groups): lower mean scores than Vehicle and No Injection treated groups; Trochlear Groove (Erosion of Cartilage) grade ([4]; all dose levels): numerically lower than the Vehicle control and No Injection treated groups; Lateral Femoral Condyle (% Surface Area Erosion) score ([4]; high dose): average numerical scores less than Vehicle and No Injection treated groups
COc1ccc(-n2nc(CCC(=O)N(C)O)cc2-c2ccc(Cl)cc2)cc1 [Tepoxalin]	170 nM	970 nM	2000 nM	lower mean scores than the No Injection treated group	numerically less average scores than the No Injection treated group		lower mean scores than the No Injection treated group		average numerical scores less than Vehicle and No Injection treated groups			lower mean scores than Vehicle and No Injection treated groups	numerically lower than the Vehicle control and No Injection treated groups	IC50 [5]: 40 nM; IC50 [6]: 2 nM; Medial Femoral Condyle (% Surface Area Erosion) score ([4]; all dose groups): average numerical scores less than Vehicle and No Injection treated groups; Total Score (composite of all scoring criteria) ([4]; low dose): numerically less average scores than the No Injection treated group
Cc1ccc(C(=O)c2ccc(CC(=O)O)n2C)cc1 [Tolmetin]	30 nM	3000 nM	50 nM			average numerical scores less than Vehicle and No Injection treated groups	lower mean scores than the No Injection treated group	lower average scores than the No Injection treated group	average numerical scores less than Vehicle and No Injection treated groups	average numerical scores less than Vehicle and No Injection treated groups	numerically less average scores than the No Injection treated group	lower mean scores than Vehicle and No Injection treated groups	numerically lower than the Vehicle control and No Injection treated groups	Femoral Condyle (Depth of Erosion) score ([4]; high dose): the same average score as the No Injection group

Source: US20060122150A1, “Pharmaceutical composition and method for treating a joint-capsule arthropathy” (priority 2004, published 2006)
